Experimental data reported in US8017649B2, “Flavonoid compounds and uses thereof” (Howard Florey Institute of Experimental Physiology and …, priority 2005, dated 2011).
“Also recorded” adds a separate entry of the source.

Tests used:
[1] = test system: superoxide anions generated in rat aorta; experiment: Superoxide anion production in rat isolated aortic segments (lucigenin chemiluminescence, NADPH); type: cell-based
Protocol: Superoxide anion production in rat isolated aortic segments was determined using lucigenin chemiluminescence. Aortic rings were prepared as described above and then placed in ice-cold Krebs-(N-[2-Hydroxyethyl]piperazine-N′-[2-ethanesulfonic acid] (HEPES buffer) (composition (mM); NaCl 99.0, KCl 4.7, KH2PO4 1.0, MgSO4·7H2O 1.2, D-glucose 11.0, NaHCO3 25.0, CaCl2·2H2O 2.5, Na-HEPES 20.0). Aortic rings were pre-incubated for 45 minutes at 37° C. with a pH 7.4, in Krebs-HEPES buffer containing diethylthiocarbamic acid (DETCA, 10^−3 M) to inactivate superoxide dismutase and β-nicotinamide adenine dinucleotide phosphate (NADPH, 10^−4 M) as a substrate for NADPH oxidase and either 3′,4′-dihydroxyflavonol (10^−4 M) as a positive control, vehicle, 3-hydroxyflavone-3-hemiadipate, 3′,4′-dihydroxy-3-hemiadipate, 3-hydroxyflavone-3-phosphate (10^−8-10^−4 M). Background photon emission was measured for 12 cycles in a 96-well Optiplate containing 0.3 ml per well of Krebs-HEPES buffer together with lucigenin (5×10^−5 M) and vehicle or flavonoid (10^−8-10^−4 M). Each cycle was counted every one minute. After background reading was completed the incubated aortic rings were transferred to the appropriate wells and photon emission was recounted as described above. The tissue was then placed in a 65° C. oven for 48 hours to allow superoxide production to be normalised to dry tissue weight.
The effects of vehicle, 3′,4′-dihydroxyflavone-3-hemiadipate (21) (DiOHF3HA, 10^−8 M-10^−4 M) and DiOHF (10^−4 M) in the presence and absence of Butyryl cholinesterase (BuCHE), 100, 300 and 1000 U/L) on the level of superoxide anions generated in rat isolated aortic segments in the presence of NADPH was expressed as a percentage of control. The method used was as described above except for the addition of the butyryl cholinesterase.
The effect of vehicle, 3-hydroxyflavone-3-phosphate (10^−8 to 10^−4 M) in the presence or absence of phosphatase (1000 U/L) on the level of superoxide anions generated in rat aorta in the presence of NADPH expressed as a percentage of control was determined as described above for the 3′,4′-dihydroxyflavone-3-hemiadipate.

aortic rings = experiment: Effect on SNP relaxation of precontracted rat aortic rings; type: cell-based
Protocol: After wash out and re-equilibration for 30 min, the aortic rings were then submaximally precontracted with PE and U46619, which were used to produce an active tension of 45-60% of the KPSS-induced maximum contraction. When investigating the effects of the flavonoids, flavonol, flavone-3-hemiadipate (F3HA), 3′, 4′-dihydroxyflavone, 3′,4′-dihydroxyflavonol, 3′,4′-dihydroxyflavone-3-hemiadipate (DiOHF3HA), and flavone-3-phosphate (F3P) on vasorelaxant responses, rings were incubated with one of the compounds for 20 mins before they were precontracted submaximally, followed by a cumulative-concentration response curve to ACh (100 nM-10 μM) or SNP ([…]). In experiments using F3P 1000U/L phosphatase was used in some experiments to cleave the phosphate. Some experiments were conducted in the presence and absence of butyryl cholinesterase (BuCHE, 1000 U/L) to cleave the adipate in DiOHF3HA and F3HA.

[2] = Solubility in aqueous solution; type: physicochemical; conditions: water
rat aortic rings = experiment: Relaxation of rat aortic rings in response to A23187 or isoprenaline; type: cell-based; conditions: 0.1 mM, absence or presence of cholinesterase

SMILES: O=C(O)CCCCC(=O)Oc1c(-c2ccc(O)c(O)c2)oc2ccccc2c1=O [DiOHF3HA, 3′,4′-dihydroxyflavone-3-hemiadipate]
- effect on superoxide generation ([1]; in the presence of cleaving enzyme (BuCHE for hemiadipates, phosphatase for phosphate, 1000 U/L)): concentration dependent inhibition of superoxide levels; also recorded: concentration dependent inhibitory effect; also recorded: inhibit superoxide levels produced by rat aorta
- effect on superoxide generation ([1]; substance alone, no added esterase/phosphatase, up to 10^−4 M, NADPH): no inhibitory effect on superoxide generation; also recorded: no antioxidant or vascular activity
- effect on relaxant response to SNP (aortic rings; in the presence of BuCHE or phosphatase): significantly increased the sensitivity of the relaxant response to SNP
- effect on relaxant response to SNP (aortic rings; substance alone): no effect on relaxant responses to ACh or SNP
- solubility in aqueous solution [2]: soluble in aqueous solution, particularly water
- relaxation in response to A23187 or isoprenaline (rat aortic rings): no effect on endothelium-dependent relaxation
